Measured values as given in ChEMBL document CHEMBL3885861, “Open TG-GATES”.

Species: Rattus norvegicus
Test: Open TG-GATES - Regimen: Daily Repeat
Type: toxicity, organism-based, Sprague-Dawley
Design: regimen Daily Repeat, gender Male, age 6 weeks
Conditions: in vivo, po, 0 mg/kg, route gavage, dose level Control; for APTT / Bas / Eos / Fbg / Hb / Ht / Lym / MCH / MCHC / MCV / Mono / Neu / PT / Plat / RBC / Ret / WBC: tissue Blood; for KIDNEY_L / KIDNEY_R / KIDNEY_TOTAL: tissue Kidney; for LIVER: tissue Liver; for ALP / ALT / AST / BUN / CRE / DBIL / GLC / IP / K / LDH / Na / PL / RALB / TBIL / TC / TG / TP / gamma-GTP: tissue Plasma

CC(CCc1ccccc1)NCC(O)c1ccc(O)c(C(N)=O)c1 (stereo not drawn) [LABETALOL]
TERMINAL_BW (72 h, time 3 day): 252.2 g | APTT (72 h, time 3 day): 16.5 s | Bas (72 h, time 3 day): 0% | Eos (72 h, time 3 day): 1% | Fbg (72 h, time 3 day): 295.4 mg/dL | Hb (72 h, time 3 day): 13.4 g/dL | Ht (72 h, time 3 day): 38.9% | Lym (72 h, time 3 day): 75.4% | MCH (72 h, time 3 day): 21.3 pg | MCHC (72 h, time 3 day): 34.3% | MCV (72 h, time 3 day): 62.2 fL | Mono (72 h, time 3 day): 3.6% | Neu (72 h, time 3 day): 19.6% | PT (72 h, time 3 day): 12.8 s | Plat (72 h, time 3 day): 116.3 x10_4/uL | RBC (72 h, time 3 day): 627 x10_4/ul | Ret (72 h, time 3 day): 6.4% | WBC (72 h, time 3 day): 105.6 x10_2/uL | KIDNEY_L (72 h, time 3 day): 1.1 g | KIDNEY_R (72 h, time 3 day): 1.1 g | KIDNEY_TOTAL (72 h, time 3 day): 2.2 g | LIVER (72 h, time 3 day): 12.1 g | ALP (72 h, time 3 day): 1730.4 IU/L | ALT (72 h, time 3 day): 44.2 IU/L | AST (72 h, time 3 day): 70 IU/L | BUN (72 h, time 3 day): 15.4 mg/dL | CRE (72 h, time 3 day): 0.2 mg/dL | DBIL (72 h, time 3 day): 0.014 mg/dL | GLC (72 h, time 3 day): 190.6 mg/dL | IP (72 h, time 3 day): 7.8 mg/dL | K (72 h, time 3 day): 4 meq/L | LDH (72 h, time 3 day): 60.6 IU/L | Na (72 h, time 3 day): 143.4 meq/L | PL (72 h, time 3 day): 158 mg/dL | RALB (72 h, time 3 day): 2.7 g/dL | TBIL (72 h, time 3 day): 0.032 mg/dL | TC (72 h, time 3 day): 85.6 mg/dL | TG (72 h, time 3 day): 111.4 mg/dL | TP (72 h, time 3 day): 5.8 g/dL | gamma-GTP (72 h, time 3 day): 1 IU/L | TERMINAL_BW ([…], time 7 day): 289.5 g | TERMINAL_BW ([…], time 14 day): 341.4 g | TERMINAL_BW ([…], time 28 day): 418.9 g | APTT ([…], time 7 day): 17.2 s | Bas ([…], time 7 day): 0% | Eos ([…], time 7 day): 0.8% | Fbg ([…], time 7 day): 319.2 mg/dL | Hb ([…], time 7 day): 13.6 g/dL | Ht ([…], time 7 day): 38.7% | Lym ([…], time 7 day): 78.2% | MCH ([…], time 7 day): 21.4 pg | MCHC ([…], time 7 day): 35.1% | MCV ([…], time 7 day): 61 fL | Mono ([…], time 7 day): 3% | Neu ([…], time 7 day): 16.8% | PT ([…], time 7 day): 12.5 s | Plat ([…], time 7 day): 117.8 x10_4/uL | RBC ([…], time 7 day): 635.2 x10_4/ul | Ret ([…], time 7 day): 6% | WBC ([…], time 7 day): 108.5 x10_2/uL | APTT ([…], time 14 day): 17.8 s | Bas ([…], time 14 day): 0.2% | Eos ([…], time 14 day): 1% | Fbg ([…], time 14 day): 271.4 mg/dL | Hb ([…], time 14 day): 14.6 g/dL | Ht ([…], time 14 day): 42.4% | Lym ([…], time 14 day): 71.8% | MCH ([…], time 14 day): 21.1 pg | MCHC ([…], time 14 day): 34.4% | MCV ([…], time 14 day): 61.5 fL | Mono ([…], time 14 day): 2.8% | Neu ([…], time 14 day): 23.8% | PT ([…], time 14 day): 12.8 s | Plat ([…], time 14 day): 104.1 x10_4/uL | RBC ([…], time 14 day): 689 x10_4/ul | Ret ([…], time 14 day): 4.5% | WBC ([…], time 14 day): 82.7 x10_2/uL | APTT ([…], time 28 day): 18.5 s | Bas ([…], time 28 day): 0.6% | Eos ([…], time 28 day): 1.2% | Fbg ([…], time 28 day): 289 mg/dL | Hb ([…], time 28 day): 15.1 g/dL | Ht ([…], time 28 day): 43.5% | Lym ([…], time 28 day): 76.2% | MCH ([…], time 28 day): 20.2 pg | MCHC ([…], time 28 day): 34.8% | MCV ([…], time 28 day): 58.3 fL | Mono ([…], time 28 day): 3.2% | Neu ([…], time 28 day): 18.4% | PT ([…], time 28 day): 12.9 s | Plat ([…], time 28 day): 98.3 x10_4/uL | RBC ([…], time 28 day): 748.2 x10_4/ul | Ret ([…], time 28 day): 2.5% | WBC ([…], time 28 day): 98.7 x10_2/uL | KIDNEY_L ([…], time 7 day): 1.2 g | KIDNEY_R ([…], time 7 day): 1.2 g | KIDNEY_TOTAL ([…], time 7 day): 2.5 g | KIDNEY_L ([…], time 14 day): 1.3 g | KIDNEY_R ([…], time 14 day): 1.2 g | KIDNEY_TOTAL ([…], time 14 day): 2.4 g | KIDNEY_L ([…], time 28 day): 1.4 g | KIDNEY_R ([…], time 28 day): 1.4 g | KIDNEY_TOTAL ([…], time 28 day): 2.9 g | LIVER ([…], time 7 day): 13.1 g | LIVER ([…], time 14 day): 13.9 g | LIVER ([…], time 28 day): 16.1 g | ALP ([…], time 7 day): 1548.4 IU/L | ALT ([…], time 7 day): 43.4 IU/L | AST ([…], time 7 day): 69.8 IU/L | BUN ([…], time 7 day): 14.2 mg/dL | CRE ([…], time 7 day): 0.2 mg/dL | DBIL ([…], time 7 day): 0.012 mg/dL | GLC ([…], time 7 day): 188.4 mg/dL | IP ([…], time 7 day): 7.8 mg/dL | K ([…], time 7 day): 3.8 meq/L | LDH ([…], time 7 day): 64.6 IU/L | Na ([…], time 7 day): 143.2 meq/L | PL ([…], time 7 day): 149.2 mg/dL | RALB ([…], time 7 day): 2.7 g/dL | TBIL ([…], time 7 day): 0.034 mg/dL | TC ([…], time 7 day): 85.4 mg/dL | TG ([…], time 7 day): 86.8 mg/dL | TP ([…], time 7 day): 5.8 g/dL | gamma-GTP ([…], time 7 day): 1 IU/L | ALP ([…], time 14 day): 1377.6 IU/L | ALT ([…], time 14 day): 45.8 IU/L | AST ([…], time 14 day): 72.4 IU/L | BUN ([…], time 14 day): 15.2 mg/dL | CRE ([…], time 14 day): 0.2 mg/dL | DBIL ([…], time 14 day): 0.014 mg/dL | GLC ([…], time 14 day): 197 mg/dL | IP ([…], time 14 day): 6.9 mg/dL | K ([…], time 14 day): 3.7 meq/L | LDH ([…], time 14 day): 79.4 IU/L | Na ([…], time 14 day): 144.6 meq/L | PL ([…], time 14 day): 146.8 mg/dL | RALB ([…], time 14 day): 2.8 g/dL | TBIL ([…], time 14 day): 0.024 mg/dL | TC ([…], time 14 day): 74 mg/dL | TG ([…], time 14 day): 120.8 mg/dL | TP ([…], time 14 day): 6.2 g/dL | gamma-GTP ([…], time 14 day): 1 IU/L | ALP ([…], time 28 day): 1192 IU/L | ALT ([…], time 28 day): 43.2 IU/L | AST ([…], time 28 day): 67 IU/L | BUN ([…], time 28 day): 17 mg/dL | CRE ([…], time 28 day): 0.2 mg/dL | DBIL ([…], time 28 day): 0.022 mg/dL | GLC ([…], time 28 day): 199 mg/dL | IP ([…], time 28 day): 6.5 mg/dL | K ([…], time 28 day): 3.6 meq/L | LDH ([…], time 28 day): 63.8 IU/L | Na ([…], time 28 day): 142.4 meq/L | PL ([…], time 28 day): 151.2 mg/dL | RALB ([…], time 28 day): 2.8 g/dL | TBIL ([…], time 28 day): 0.036 mg/dL | TC ([…], time 28 day): 77.6 mg/dL | TG ([…], time 28 day): 143.2 mg/dL
